In ChEMBL document CHEMBL1128118, “Synthesis of biologically active 2-benzoyl paclitaxel analogues” (1995) one finds Ratio and Activity data, which are given here for 13 molecules.

For experiment [1], the system named is B16. As to the kind of experiment: Ratio of ED50 of compound for B16 melanoma cytotoxicity to that of ED50 of paclitaxel; Relative paclitaxel ED50 = 1.0. The experiment is classed as functional, Mus musculus.
The target in experiment [2] is Tubulin (Bos taurus) (UniProt Q6B856+Q862L2+Q862F3). As to the kind of experiment: Ratio of ED50 for microtubule polymerization to ED50 for paclitaxel; Relative paclitaxel ED50 = 1.0. The class given is functional.
Experiment [3] deals with P388. As to the kind of experiment: Compound was tested for in vitro cytotoxicity against P388 cells. The class given is functional, Mus musculus.

As to `CC(=O)O[C@H]1C(=O)[C@]2(C)[C@@H](O)CC3OC[C@@]3(OC(C)=O)[C@H]2[C@H](OC(=O)c2ccc(C)cc2)[C@]2(O)C[C@H](OC(=O)[C@H](O)[C@@H](NC(=O)c3ccccc3)c3ccccc3)C(C)=C1C2(C)C` (some centres not stated), the Ratio in experiment [1] came out at 5.1; in experiment [2], 1.6.

With `CC(=O)O[C@H]1C(=O)[C@]2(C)[C@@H](O)CC3OC[C@@]3(OC(C)=O)[C@H]2[C@H](OC(=O)c2cccc([N+](=O)[O-])c2)[C@]2(O)C[C@H](OC(=O)[C@H](O)[C@@H](NC(=O)c3ccccc3)c3ccccc3)C(C)=C1C2(C)C` (some centres not stated), the Ratio was determined as 0.73 in experiment [1] and 1.3 in experiment [2].

With `CC(=O)O[C@H]1C(=O)[C@]2(C)[C@@H](O)CC3OC[C@@]3(OC(C)=O)[C@H]2[C@H](OC(=O)c2ccccc2C)[C@]2(O)C[C@H](OC(=O)[C@H](O)[C@@H](NC(=O)c3ccccc3)c3ccccc3)C(C)=C1C2(C)C` (some centres not stated), the Ratio in experiment [1] was 0.84; in experiment [2] it was 1.1.

Turning to `CC(=O)O[C@H]1C(=O)[C@]2(C)[C@@H](O)CC3OC[C@@]3(OC(C)=O)[C@H]2[C@H](OC(=O)c2cccc(C(F)(F)F)c2)[C@]2(O)C[C@H](OC(=O)[C@H](O)[C@@H](NC(=O)c3ccccc3)c3ccccc3)C(C)=C1C2(C)C` (some centres not stated), the Ratio came to 2.7 in experiment [1] and 0.64 in experiment [2].

As for `CC(=O)O[C@H]1C(=O)[C@]2(C)[C@@H](O)CC3OC[C@@]3(OC(C)=O)[C@H]2[C@H](OC(=O)c2cccc(C)c2)[C@]2(O)C[C@H](OC(=O)[C@H](O)[C@@H](NC(=O)c3ccccc3)c3ccccc3)C(C)=C1C2(C)C` (some centres not stated), the Ratio in experiment [1] was found to be 1.6; in experiment [2], 1.7.

Take `CC(=O)O[C@H]1C(=O)[C@]2(C)[C@@H](O)CC3OC[C@@]3(OC(C)=O)[C@H]2[C@H](OC(=O)c2ccc(Cl)c(Cl)c2)[C@]2(O)C[C@H](OC(=O)[C@H](O)[C@@H](NC(=O)c3ccccc3)c3ccccc3)C(C)=C1C2(C)C` (some centres not stated): the values for the Ratio in experiment [1] and in experiment [2] were 2.7 and 0.45, respectively.

In the case of `CC(=O)O[C@H]1C(=O)[C@]2(C)[C@@H](O)CC3OC[C@@]3(OC(C)=O)[C@H]2[C@H](OC(=O)c2ccc(Cl)cc2)[C@]2(O)C[C@H](OC(=O)[C@H](O)[C@@H](NC(=O)c3ccccc3)c3ccccc3)C(C)=C1C2(C)C` (some centres not stated), the figures for the Ratio in experiment [1] and in experiment [2] were 3.1 and 0.79, respectively.

With `CC(=O)O[C@H]1C(=O)[C@]2(C)[C@@H](O)CC3OC[C@@]3(OC(C)=O)[C@H]2[C@H](OC(=O)c2ccc(F)cc2)[C@]2(O)C[C@H](OC(=O)[C@H](O)[C@@H](NC(=O)c3ccccc3)c3ccccc3)C(C)=C1C2(C)C` (some centres not stated), the Ratio in experiment [1] was more than 36; in experiment [2], 3.2.

Turning to `CC(=O)O[C@H]1C(=O)[C@@]2(C)[C@H]([C@H](OC(=O)c3ccccc3)[C@]3(O)C[C@H](OC(=O)[C@H](O)[C@@H](NC(=O)c4ccccc4)c4ccccc4)C(C)=C1C3(C)C)[C@]1(OC(C)=O)CO[C@@H]1C[C@@H]2O` [PACLITAXEL], the Ratio in experiment [1] and in experiment [2] was 1 each time. Besides, the Activity in experiment [3] is on record as 1.

`CC(=O)O[C@H]1C(=O)[C@]2(C)[C@@H](O)CC3OC[C@@]3(OC(C)=O)[C@H]2[C@H](OC(=O)c2cccc(Cl)c2)[C@]2(O)C[C@H](OC(=O)[C@H](O)[C@@H](NC(=O)c3ccccc3)c3ccccc3)C(C)=C1C2(C)C` (some centres not stated): the results for the Ratio in experiment [1] and in experiment [2] were 0.57 and 1.1, respectively. The same molecule had an Activity in experiment [3] of 0.81.

As for `COc1ccc(C(=O)O[C@H]2[C@H]3[C@](C)(C(=O)[C@H](OC(C)=O)C4=C(C)[C@@H](OC(=O)[C@H](O)[C@@H](NC(=O)c5ccccc5)c5ccccc5)C[C@]2(O)C4(C)C)[C@@H](O)CC2OC[C@]23OC(C)=O)cc1` (some centres not stated), the Ratio in experiment [1] turned out to be 22; in experiment [2], 6.

On to `CC(=O)O[C@H]1C(=O)[C@]2(C)[C@@H](O)CC3OC[C@@]3(OC(C)=O)[C@H]2[C@H](OC(=O)c2cc(Cl)cc(Cl)c2)[C@]2(O)C[C@H](OC(=O)[C@H](O)[C@@H](NC(=O)c3ccccc3)c3ccccc3)C(C)=C1C2(C)C` (some centres not stated), for which the Ratio in experiment [1] amounted to 1.8; in experiment [2], 0.98.

Turning to `CC(=O)O[C@H]1C(=O)[C@]2(C)[C@@H](O)CC3OC[C@@]3(OC(C)=O)[C@H]2[C@H](OC(=O)c2ccc([N+](=O)[O-])cc2)[C@]2(O)C[C@H](OC(=O)[C@H](O)[C@@H](NC(=O)c3ccccc3)c3ccccc3)C(C)=C1C2(C)C` (some centres not stated), the Ratio in experiment [2] is more than 8.8.
